In patent publication US9630977B2, “Cephalosporin derivatives and pharmaceutical compositions thereof” (Legochem Biosciences, Inc., priority 2011, dated 2017):
Values after ≈ are worked out from the molar mass of the structure shown.

What follows are molecules tested on A. baumannii 49 (assay: In vitro antibacterial activity test (broth microdilution)). Details: A. baumannii 49.
Type: cell-based
Protocol: (§1) To evaluate antibacterial activity of each of the compounds of Examples 1 to 68, in vitro antibacterial activity test was performed.
(§2) The in vitro antibacterial activity was evaluated by measuring MIC90 (ug/mL) of each of the compounds of Examples 1 to 68, which is defined as the lowest concentration of an antibiotic that will inhibit the visible growth of 90% of microorganisms after incubation as compared with a control group to which the antibiotic is not treated. MIC90 values were measured by the broth microdilution method developed by the Clinical and Laboratory Standards Institute (CLSI) (see CLSI M7-A5, Methods for Dilution Antimicrobial Susceptibility Test for Bacteria that Grow Aerobically-Fifth Edition (2000): CLSI, Villanova, Pa.).
(§3) In vitro antibacterial activity was measured with respect to the following 19 clinical isolates: M. catarrhalis; P. aeruginosa (5 strains); K. pneumoniae (6 strains); A. baumannii (3 strains); E. coli (2 strains); A. calcoaceticus; and E. cloacae.
(§4) Test compounds each (the cephalosporin derivative compounds prepared in Examples 1 to 68) were dissolved in DMSO at the concentration of 10,240 ug/mL, were diluted by two fold with DMSO, and then were diluted by twenty fold with sterilized distilled water. The final concentration in the antibacterial activity test was in the range of […] to 128 ug/mL, and the final concentration of DMSO used as an adjuvant was 2.5% (V/V).
With `CC(C)(ON=C(C(=O)NC1C(=O)N2C(C(=O)[O-])=C(C[n+]3cnc(N)c(NCC=CC(=O)NO)c3)CSC12)c1csc(N)n1)C(=O)O` (stereo not drawn) [Compound 47] the MIC90 was greater than 128 µg/mL.

These molecules were tested on A. calcoaceticus ATCC15473 in the same assay as above. Details: A. calcoaceticus ATCC15473.
Type: cell-based
Protocol: as §1, §2, §3, §4
`CC(C)(ON=C(C(=O)NC1C(=O)N2C(C(=O)[O-])=C(C[n+]3cnc(N)c(NCC=CC(=O)NO)c3)CSC12)c1csc(N)n1)C(=O)O` (stereo not drawn) [Compound 47] gave an MIC90 of 8 µg/mL (≈ 11.8 µM).

What follows are molecules tested on K. pneumoniae 2011E in the same assay as above. Details: K. pneumoniae 2011E.
Type: cell-based
Protocol: as §1, §2, §3, §4
Molecule `CC(C)(ON=C(C(=O)NC1C(=O)N2C(C(=O)[O-])=C(C[n+]3cnc(N)c(NCC=CC(=O)NO)c3)CSC12)c1csc(N)n1)C(=O)O` (stereo not drawn) [Compound 47] has an MIC90 of 4 µg/mL (≈ 5.91 µM).

Each molecule was assayed on P. aeruginosa 43 in the same assay as above. Details: P. aeruginosa 43.
Type: cell-based
Protocol: as §1, §2, §3, §4
`CC(C)(ON=C(C(=O)NC1C(=O)N2C(C(=O)[O-])=C(C[n+]3cnc(N)c(NCC=CC(=O)NO)c3)CSC12)c1csc(N)n1)C(=O)O` (stereo not drawn) [Compound 47] gave an MIC90 of 128 µg/mL (≈ 189 µM).

The molecules below were run on E. cloacae β19 in the same assay as above. Details: not given.
Type: cell-based
Protocol: as §1, §2, §3, §4
`CC(C)(ON=C(C(=O)NC1C(=O)N2C(C(=O)[O-])=C(C[n+]3cnc(N)c(NCC=CC(=O)NO)c3)CSC12)c1csc(N)n1)C(=O)O` (stereo not drawn) [Compound 47] showed an MIC90 of 128 µg/mL (≈ 189 µM).

These molecules were tested on P. aeruginosa 37 in the same assay as above. Details: P. aeruginosa 37.
Type: cell-based
Protocol: as §1, §2, §3, §4
For `CC(C)(ON=C(C(=O)NC1C(=O)N2C(C(=O)[O-])=C(C[n+]3cnc(N)c(NCC=CC(=O)NO)c3)CSC12)c1csc(N)n1)C(=O)O` (stereo not drawn) [Compound 47], the MIC90 was 64 µg/mL (≈ 94.6 µM).

The molecules below were run on E. coli AG100 in the same assay as above. Details: E. coli AG100.
Type: cell-based
Protocol: as §1, §2, §3, §4
For `CC(C)(ON=C(C(=O)NC1C(=O)N2C(C(=O)[O-])=C(C[n+]3cnc(N)c(NCC=CC(=O)NO)c3)CSC12)c1csc(N)n1)C(=O)O` (stereo not drawn) [Compound 47], the MIC90 was greater than 128 µg/mL.

What follows are molecules tested on P. aeruginosa 40 in the same assay as above. Details: P. aeruginosa 40.
Type: cell-based
Protocol: as §1, §2, §3, §4
`CC(C)(ON=C(C(=O)NC1C(=O)N2C(C(=O)[O-])=C(C[n+]3cnc(N)c(NCC=CC(=O)NO)c3)CSC12)c1csc(N)n1)C(=O)O` (stereo not drawn) [Compound 47] showed an MIC90 of 32 µg/mL (≈ 47.3 µM).

Each molecule was assayed on A. baumannii 52 in the same assay as above. Details: A. baumannii 52.
Type: cell-based
Protocol: as §1, §2, §3, §4
`CC(C)(ON=C(C(=O)NC1C(=O)N2C(C(=O)[O-])=C(C[n+]3cnc(N)c(NCC=CC(=O)NO)c3)CSC12)c1csc(N)n1)C(=O)O` (stereo not drawn) [Compound 47] showed an MIC90 of 128 µg/mL (≈ 189 µM).

The molecules below were run on A. baumannii 46 in the same assay as above. Details: A. baumannii 46.
Type: cell-based
Protocol: as §1, §2, §3, §4
`CC(C)(ON=C(C(=O)NC1C(=O)N2C(C(=O)[O-])=C(C[n+]3cnc(N)c(NCC=CC(=O)NO)c3)CSC12)c1csc(N)n1)C(=O)O` (stereo not drawn) [Compound 47] showed an MIC90 of 16 µg/mL (≈ 23.6 µM).

What follows are molecules tested on M. catarrhalis 2524 in the same assay as above. Details: M. catarrhalis 2524.
Type: cell-based
Protocol: as §1, §2, §3, §4
For `CC(C)(ON=C(C(=O)NC1C(=O)N2C(C(=O)[O-])=C(C[n+]3cnc(N)c(NCC=CC(=O)NO)c3)CSC12)c1csc(N)n1)C(=O)O` (stereo not drawn) [Compound 47], the MIC90 was 0.25 µg/mL (≈ 0.369 µM).

These molecules were tested on P. aeruginosa 1912E in the same assay as above. Details: not given.
Type: cell-based
Protocol: as §1, §2, §3, §4
`CC(C)(ON=C(C(=O)NC1C(=O)N2C(C(=O)[O-])=C(C[n+]3cnc(N)c(NCC=CC(=O)NO)c3)CSC12)c1csc(N)n1)C(=O)O` (stereo not drawn) [Compound 47] showed an MIC90 of 8 µg/mL (≈ 11.8 µM).

The molecules below were run on E. coli β4 in the same assay as above. Details: not given.
Type: cell-based
Protocol: as §1, §2, §3, §4
`CC(C)(ON=C(C(=O)NC1C(=O)N2C(C(=O)[O-])=C(C[n+]3cnc(N)c(NCC=CC(=O)NO)c3)CSC12)c1csc(N)n1)C(=O)O` (stereo not drawn) [Compound 47] showed an MIC90 of 16 µg/mL (≈ 23.6 µM).

What follows are molecules tested on K. pneumoniae β14 in the same assay as above. Details: not given.
Type: cell-based
Protocol: as §1, §2, §3, §4
`CC(C)(ON=C(C(=O)NC1C(=O)N2C(C(=O)[O-])=C(C[n+]3cnc(N)c(NCC=CC(=O)NO)c3)CSC12)c1csc(N)n1)C(=O)O` (stereo not drawn) [Compound 47] showed an MIC90 of 32 µg/mL (≈ 47.3 µM).

Each molecule was assayed on P. aeruginosa 6065Y in the same assay as above. Details: not given.
Type: cell-based
Protocol: as §1, §2, §3, §4
`CC(C)(ON=C(C(=O)NC1C(=O)N2C(C(=O)[O-])=C(C[n+]3cnc(N)c(NCC=CC(=O)NO)c3)CSC12)c1csc(N)n1)C(=O)O` (stereo not drawn) [Compound 47] was tested, and the MIC90 was 128 µg/mL (≈ 189 µM).
